Results published in patent US12193442B2, “Modulation of plant biology” (FBSCIENCES HOLDINGS, INC., priority 2012, dated 2025).

How the values were obtained:
Assay type in all cases: in vivo
[1] = system: tomato plants (Lycopersicon es.); test: Experiment Fe-4: addition of low levels of iron to CPPA, foliar application; conditions: for Leaf # / Plt. Ht. / Plt. Wt. / Root Wt. / Shoot Wt. / Vigor: foliar
Description: Experiment Fe-4: The purpose of this experiment was to determine if the addition of low levels of iron to a CPPA sample containing lower than typical amounts of iron (e.g., Fe/TOC=0.135) would increase the biological response of plants. Nominal Fe/TOC ratios for CPPA range from 0.10 to 0.28 but the optimum ratio for “as-is” samples of CPPA, as determined in the previous experiments, is between 0.2 and 0.25. Thus, for this experiment, non-agrochemically effective amounts of iron were combined with CPPA samples. Tomato plants (Lycopersicon es.) were produced from seed and transplanted into 3 inch by 3 inch pots. There were 16 treatments plus an untreated check with 20 replicates per treatment arranged in a Randomized Complete Block design. Pots were treated with water (UTC), or CPPA only (3 different rates), Fe only (3 different rates), or CPPA and Fe at each of the rates. The CPPA rates corresponded to 260, 520, and 1040 mg organic carbon (TOC) per hectare and the Fe rates corresponded to 130, 260, and 520 mg Fe per hectare. All pots were treated by foliar application immediately after transplanting. Ten days after the application, ten of the plants were harvested and assessed for vigor, leaf number, plant height, plant weight, root weight, and shoot weight. […] Additional application rates of CPPA and Fe were evaluated with similar synergistic results observed for the combination of CPPA with amounts of iron. Twenty days after transplanting, the remaining ten plants in each treatment were assessed.

seeds = test: Seed treatment observations with CPPA, iron-removed CPPA and Fe; conditions: treating seeds with Fe alone
Description: These observations support the premise that the combination of CPPA and Fe are synergistic in their interaction and biological effect on plants and/or seeds.

[2] = system: tomato plants (Lycopersicon es.); test: Experiment Salt-1: CPPA/NaCl composition, foliar application
Method: Experiment Salt-1: […] There were a total of 5 treatments plus an untreated check, each with 10 replicates per treatment arranged in a randomized block design. […] Each treatment comprised samples treated with CPPA alone, salt alone, or CPPA plus salt. Two rates of CPPA were used; the first was equivalent to 520 mg of TOC per hectare and a second equivalent to 1040 mg of TOC per hectare. Salt was applied at a rate equivalent to 2.6 g of salt per hectare. All treatments were diluted with water to provide a final spray volume equivalent to 208 lit per hectare, made with a spray bottle, with just enough spray solution to wet the leaf surface of each plant. Ten days after treatment the plants were assessed for vigor, leaf number, plant height, plant weight, root weight, shoot weight, and leaf conductance using a SPAD meter and are summarized in Table 8 and depicted in FIGS. 10-16.

[3] = system: tomato plants (Lycopersicon es.); test: Experiment Salt-2: foliar treatment of CPPA/salt formulations; conditions: ten and twenty day assessments averaged
Method: There were a total of 8 treatments plus an untreated check, with 20 replicates per treatment arranged in a randomized block design. Aqueous solutions of CPPA (1000 mg TOC/L) and salt (5000 mg/L) were used for this experiment and all plants were treated with a foliar application at the time they were transplanted into the pots. Each treatment contained CPPA alone, salt alone, or CPPA plus salt. Two rates of CPPA were used; the first was equivalent to 260 mg of TOC per hectare and a second equivalent to 1040 mg of TOC per hectare. […] All treatments were diluted with water to provide a final spray volume equivalent to 208 lit per hectare, applied with a spray bottle, with just enough spray solution to wet the leaf surface of each plant. Ten days after applications, ten each of the plant samples in each treatment were assessed for vigor, leaf number, plant height, plant weight, root weight, and shoot weight. Assessments were repeated at twenty days with the remaining ten plants of each treatment and the results were averaged. FIG. 17 depicts observed vigor, leaf number, plant height, plant weight, root weight, and shoot weight results for treatments to the tomato plants with 0 mg and 260 mg CPPA/ha application rate with variable salt application rates, which are also summarized in Table 4.

[4] = system: wheat seeds (Triticum aestivum); test: Experiment Salt-3: soil treatments of CPPA/salt formulations; conditions: soil drench, 28 days after treatment
Method: For this experiment, wheat seeds (Triticum aestivum) were planted in small pots, approximately 1 inch in diameter and an inch in depth. There were a total of 8 treatments plus an untreated check, with 20 replicates per treatment arranged in a randomized block design. […] Treatments contained CPPA alone, salt alone, or CPPA plus salt. Two rates of CPPA were used; the first was equivalent to 520 mg of TOC per hectare and a second equivalent to 1040 mg of TOC per hectare. […] Twenty eight days after treatment the plants were assessed for plant weight, root weight, and shoot weight. FIG. 19 depicts plant weight, root weight, and shoot weight results for treatments with 520 mg CPPA/ha in combination with varying salt rates, which are summarized in Table 12.

[5] = CPPA 260 mg TOC/ha and/or Fe 130 mg Fe/ha (FeSO4), second assessment, 20 days after application
[6] = CPPA 520 mg TOC/ha and/or Fe 130 mg Fe/ha (FeSO4), 20 days after application
[7] = CPPA 1040 mg TOC/ha and/or Fe 520 mg Fe/ha (FeSO4), first assessment, 10 days after application
[8] = CPPA 1040 mg TOC/ha and/or Fe 520 mg Fe/ha (FeSO4), second assessment, 20 days after application
[9] = CPPA 520 mg TOC/ha and/or NaCl 2600 mg/ha, ten days after treatment
[10] = CP 1040 mg/ha and/or NaCl 1300 mg/ha
[11] = NaCl 2600 mg/ha alone or with CP 1040 mg/ha
[12] = CP 520 mg/ha and/or NaCl 1300 mg/ha
[13] = CP 1040 mg TOC/ha and/or NaCl 1300 mg/ha
[14] = NaCl 2600 mg/ha alone or with CP 520 mg/ha
[15] = NaCl 2600 mg/ha alone or with CP 1040 mg TOC/ha

SMILES: O=S(=O)([O-])[O-].[Fe+2] [Fe, FeSO4]
- Leaf # [1, 5]: 6.3 ab
- Plt. Ht. [1, 5]: 6.4 abc
- Plt. Wt. [1, 5]: 6.4 c
- Root Wt. [1, 5]: 3.0 c
- Shoot Wt. [1, 5]: 3.4 cd
- Vigor [1, 5]: 2.1 c
- Leaf # [1, 6]: 6.3 ab
- Plt. Ht. [1, 6]: 6.4 ab
- Plt. Wt. [1, 6]: 6.4 b
- Root Wt. [1, 6]: 3.0 b
- Shoot Wt. [1, 6]: 3.4 ab
- Vigor [1, 6]: 2.1 c
- Leaf # [1, 7]: 6.6 ab
- Plt. Ht. [1, 7]: 4.2 b
- Plt. Wt. [1, 7]: 4.9 b
- Root Wt. [1, 7]: 1.4 bc
- Shoot Wt. [1, 7]: 3.6 b
- Vigor [1, 7]: 3.8 b
- Leaf # [1, 8]: 5.1 b
- Plt. Ht. [1, 8]: 6.3 b
- Plt. Wt. [1, 8]: 4.5 b
- Root Wt. [1, 8]: 1.6 bc
- Shoot Wt. [1, 8]: 2.9 cd
- Vigor [1, 8]: 2.5 c
- biological effect on plant, root and shoot weights relative to UTC ([1]; high application rate of CPPA alone or of Fe alone, FIG. 9F, Table 4): apparent slightly negative biological effect on the plant, root and shoot weights, although it was not statistically significant
- root development and shoot development (seeds): negative effect on root development and on shoot development

SMILES: [Cl-].[Na+] [NaCl]
- Leaf # [2, 9]: 5.3 e
- Plt. Ht. [2, 9]: 3.5 b
- Plt. Wt. [2, 9]: 2.7 c
- Root Wt. [2, 9]: 0.8jc
- SPAD (leaf conductance using a SPAD meter) [2, 9]: 24.2 b
- Shoot Wt. [2, 9]: 2.0 c
- Vigor [2, 9]: 2.4 b
- phytotoxicity of salt and its mitigation ([2]; Table 8, ten days): expected poorest results, indicating a significant amount of phytotoxicity
- Leaf # [3, 10]: 4.7 de
- Plt. Ht. [3, 10]: 4.7 cd inches
- Plt. Wt. [3, 10]: 3.7 d grams
- Root Wt. [3, 10]: 1.4 cd grams
- Shoot Wt. [3, 10]: 2.3 e grams
- Vigor (1-5) [3, 10]: 2.9 de
- Leaf # [3, 11]: 4.1 f
- Plt. Ht. [3, 11]: 4.1 e inches
- Plt. Wt. [3, 11]: 3 de grams
- Root Wt. [3, 11]: 1.0 d grams
- Shoot Wt. [3, 11]: 2.0 ef grams
- Vigor (1-5) [3, 11]: 2.2 g
- Plt. Wt. [4, 12]: 2.1cd
- Root Wt. [4, 12]: 0.4bc
- Shoot Wt. [4, 12]: 1.8c
- Plt. Wt. [4, 13]: 2.1de
- Root Wt. [4, 13]: 0.4cd
- Shoot Wt. [4, 13]: 1.8 days
- Plt. Wt. [4, 14]: 2 days
- Root Wt. [4, 14]: 0.3cd
- Shoot Wt. [4, 14]: 1.7c
- Plt. Wt. [4, 15]: 2e
- Root Wt. [4, 15]: 0.3de
- Shoot Wt. [4, 15]: 1.7 days
